Reference: patent US20100280023A1, “THIAZOLE DERIVATIVES” (KYOWA HAKKO KOGYO CO., LTD., priority 2005, published 2010)

How the values were obtained:
[1] = system: CGS21680-induced catalepsy; assay: Effect on CGS21680-induced catalepsy; format: in vivo, male ddY mice; settings: mice; 10 mg/kg orally 30 minutes before i.c.v. CGS21680 10 μg/20 μL; scored 1 hour after administration; 80% or more judged active
Experimental: Parkinson's disease is motor dysfunction based on the degeneration and cell death of the nigrostriatal dopaminergic neuron. […] Therefore, it is considered that the adenosine A2A receptor functions to promote the output of GABAergic neurons from the corpus striatum into the external segment of globus pallidus, and as a result, catalepsy is induced by the administration of CGS21680.
The experiment was carried out using 10 male ddY mice of 5 weeks of age (body weight, 22 to 25 g, by Nippon SLC) per group. CGS21680 (by Kyowa Hakko Kogyo) was dissolved in physiological saline (by Otsuka Pharmaceutical), and intracerebroventricularly injected to the mice in an amount of 10 μg/20 μL. The test compound was used by being suspended in distilled water containing 0.5 w/v % methyl cellulose 400 cP (hereinafter abbreviated as MC) (by Otsuka Pharmaceutical). […] At 1 hour after the administration of the test compound, the degree of catalepsy was measured with respect to each of the mice such that a pair of only forelimbs and a pair of only hindlimbs of each mouse were placed by turns on a vertically installed acrylic stand with a height of 4.5 cm and a width of 1.0 cm. […]
The catalepsy remission rate was calculated according to the following equation. […]

[2] = target: T1, Rat adenosine A2A receptor (Rattus norvegicus, UniProt P30543); assay: Adenosine A2A receptor binding test (3H-CGS21680 binding, rat corpus striatum membranes); settings: test compound 10^−7 mol/L, 25° C., 120 minutes, read-out: Rat adenosine A2A receptor binding inhibition rate (%) (10^−7 mol/L)
T1 construct: tissue Nippon SLC (animals); host or cells: rat (SD) corpus striatum membrane preparation
Experimental: This test was carried out in a similar manner to a Bruns et al's method (Molecular Pharmacology, Vol. 29, p. 331, 1986).
Corpus striatum of a rat (SD rat, by Nippon SLC) was suspended in 50 mL of an ice-cooled 50 mmol/L tris(hydroxymethyl)aminomethane hydrochloride (Tris-HCl) buffer (pH 7.7) using a polytron homogenizer (by Kinematica). The resulting suspension was centrifuged (48,000×g, 20 minutes), and the resulting precipitate was resuspended by adding the same amount of a 50 mmol/L Tris-HCl buffer, followed by centrifugation under the same condition. The resulting final precipitate was suspended by adding a 50 mmol/L Tris-HCl buffer [containing 10 mmol/L magnesium chloride, adenosine deaminase 0.02 units/mg tissue (by Sigma)] thereto so that the tissue concentration was 5 mg (wet weight)/mL.
To 100 μl, of the above purified cell suspension, 80 μL (final concentration: […]) of tritium-labeled CGS-21680 {^3H-2-[p-(2-carboxyethyl)phenethylamino]-5′-(N-ethylcarboxamido)-adenosine: 40 curies/mmol: by New England Nuclear [The Journal of Pharmacology and Experimental Therapeutics, Vol. 251, p. 888, 1989]) and 20 μL of a test compound solution (10^−7 mol/L; a solution of a test compound in DMSO was diluted with a Tris-HCl buffer) were added. The resulting mixture was allowed to stand at 25° C. for 120 minutes, followed by rapid suction filtration through a glass fiber paper filter (GF/C; by Whatman). The filter was immediately washed three times with 200 μL of an ice-cooled 50 mmol/L Tris-HCl buffer. The glass fiber paper filter was transferred into a vial, Microscinti (by Perkin Elmer) was added thereto, and the radioactivity level was measured with Topcount (by Perkin Elmer).
The inhibition rate of the test compound to the adenosine A2A receptor binding (3H-CGS21680 binding) was calculated according to the following equation.
Inhibition rate (%)={1−[(Amount of binding in the presence of compound)−(Amount of non-specific binding)]/[(Amount of total binding)−(Amount of non-specific binding)]}×100
Amount of total binding means the ^3H-CGS21680 binding radioactivity content in the absence of the test compound. Amount of non-specific binding means the ^3H-CGS21680 binding radioactivity content in the presence of 100 μmol/L cyclopentyladenosine (CPA; by Sigma). Amount of binding in the presence of compound means the ^3H-CGS21680 binding radioactivity content in the presence of 10^−7 mol/L, of the test compound.

T1 sequence (P30543 whole entry): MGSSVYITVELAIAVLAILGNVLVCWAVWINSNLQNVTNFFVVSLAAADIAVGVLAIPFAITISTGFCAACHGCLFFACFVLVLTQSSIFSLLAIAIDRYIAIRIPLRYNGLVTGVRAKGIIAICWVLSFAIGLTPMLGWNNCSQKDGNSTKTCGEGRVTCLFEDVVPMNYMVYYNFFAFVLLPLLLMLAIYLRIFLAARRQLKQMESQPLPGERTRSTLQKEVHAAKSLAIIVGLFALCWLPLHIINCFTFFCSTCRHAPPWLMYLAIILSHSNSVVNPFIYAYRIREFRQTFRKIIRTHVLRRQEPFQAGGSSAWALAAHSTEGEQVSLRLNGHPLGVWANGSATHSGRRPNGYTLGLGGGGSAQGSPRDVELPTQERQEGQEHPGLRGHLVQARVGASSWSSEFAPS

| inhibition at 0.1 µM [2] [%] | melting point [°C] | SMILES | catalepsy remission rate [1] [%] |
| --- | --- | --- | --- |
| – | – | O=C(c1sc(-c2nc3ncccc3[nH]2)nc1-c1ccco1)C1CCOCC1 [Compound 17, 4-(2-Furyl)-2-(imidazo[4,5-b]pyridin-2-yl)thiazol-5-yl tetrahydropyran-4-yl ketone] | 100 |
| 81 | – | O=C(c1sc(-c2nc3cnccc3[nH]2)nc1-c1ccco1)C1CCOCC1 [Compound 18, 4-(2-Furyl)-2-(imidazo[4,5-c]pyridin-2-yl)thiazol-5-yl tetrahydropyran-4-yl ketone] | – |
| 63 | 178 to 180 | COc1ccc(-c2c[nH]c(-c3nc(-c4ccco4)c(C(=O)C4CCOCC4)s3)n2)cc1 [Compound 19, 4-(2-Furyl)-2-[4-(4-methoxyphenyl)imidazol-2-yl]thiazol-5-yl tetrahydropyran-4-yl ketone] | – |
| 94 | – | O=C(c1ccccn1)c1sc(-c2nc3ccccc3[nH]2)nc1-c1ccco1 [Compound 24, 4-(2-Furyl)-5-(pyridin-2 ylcarbonyl)-2-(2-benzimidazolyl)thiazole] | – |
| 90 | – | O=C(c1ccccn1)c1sc(-c2nc3c([nH]2)CSCC3)nc1-c1ccco1 [Compound 29, 4-(2-Furyl)-5-(pyridin-2-ylcarbonyl)-2-(3,4,6,7-tetrahydrothiopyrano[3,4-d]imidazol-2-yl)thiazole] | – |
| 26 | – | O=C(Nc1ccccc1)c1nc(-c2ccco2)c(C(=O)C2CCOCC2)s1 [Compound 32, 4-(2 Furyl)-5-(tetrahydropyran-4-ylcarbonyl)thiazol-2-carboxylic acid phenylamide] | – |
| 50 | – | CC(C)CNC(=O)c1nc(-c2ccco2)c(C(=O)C2CCOCC2)s1 [Compound 33, 4-(2-Furyl)-5-(tetrahydropyran-4-ylcarbonyl)thiazol-2-carboxylic acid isobutylamide] | – |
